In patent publication US20230181556A1, “USE OF PSYCHOTROPIC DRUGS FOR THE TREATMENT OF CORONAVIRUS INFECTIONS” (priority 2020, published 2023):
“Also recorded” adds a separate entry of the source.

Assays:
[1] = test system: viruses as listed per drug; conditions: virus or effect named in the literature; cited from earlier work
phospholipidosis = conditions: cited from earlier work
[2] = under 20 μM concentrations; Hou et al.; cited from earlier work
[3] = target: spike protein-ACE2 interaction (Homo sapiens, UniProt Q9BYF1); conditions: Hou et al., Chemico-Biological Interactions 338 (2021) 109420; cited from earlier work
Chain of spike protein-ACE2 interaction (Q9BYF1 18-805): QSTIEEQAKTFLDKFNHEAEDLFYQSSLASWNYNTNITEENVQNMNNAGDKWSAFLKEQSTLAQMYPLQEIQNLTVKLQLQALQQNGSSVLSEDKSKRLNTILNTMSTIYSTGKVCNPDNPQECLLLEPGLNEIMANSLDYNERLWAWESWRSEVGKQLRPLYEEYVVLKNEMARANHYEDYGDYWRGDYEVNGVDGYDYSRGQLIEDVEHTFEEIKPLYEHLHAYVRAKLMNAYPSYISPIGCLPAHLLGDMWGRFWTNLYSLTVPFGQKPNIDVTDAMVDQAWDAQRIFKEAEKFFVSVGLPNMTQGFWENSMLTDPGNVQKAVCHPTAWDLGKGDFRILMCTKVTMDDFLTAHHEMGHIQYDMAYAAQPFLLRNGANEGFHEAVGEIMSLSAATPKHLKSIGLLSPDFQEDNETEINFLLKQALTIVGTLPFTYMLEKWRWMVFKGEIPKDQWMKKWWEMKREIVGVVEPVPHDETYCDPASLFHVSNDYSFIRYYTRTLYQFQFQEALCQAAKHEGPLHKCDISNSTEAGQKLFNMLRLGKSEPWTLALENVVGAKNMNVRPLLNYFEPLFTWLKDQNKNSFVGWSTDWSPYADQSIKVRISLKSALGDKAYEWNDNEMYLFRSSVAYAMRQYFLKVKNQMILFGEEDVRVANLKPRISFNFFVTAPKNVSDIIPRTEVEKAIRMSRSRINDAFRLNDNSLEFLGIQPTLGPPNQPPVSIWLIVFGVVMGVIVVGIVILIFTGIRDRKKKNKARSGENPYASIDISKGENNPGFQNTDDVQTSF

Vero-E6 cells = assay: cytotoxicity in mock infected cells; type: cell-based; conditions: same experiment (10 μM, 5 μM and 2 μM)
Method: One day prior to the assay, Vero-E6 cells (ATCC® CRL-1586) were plated in a 96-wells flat bottom tissue culture treated plate at a density of 2×10^4 cells/well. On the day of the assay, Vero-E6 cells were pre-treated with the different concentration (i.e. 10 μM, 5 μM and 2 μM) of the indicated drugs diluted in Dulbecco's Modified Eagles Medium (DMEM). After 1 h, the cells were infected with 50 μl of a viral inoculum at 1×10^3 TCID50/ml and incubated for 2 h at 37° C. to allow infection. Then, the virus-drug mixture was removed, cells were rinsed 3 times with PBS and were further cultured with fresh drug-containing medium (DMEM 5% FBS) for 3 days until microscopic examination was performed. Cytotoxicity of the tested drugs were determined in the same experiment in mock infected cells. The half maximal inhibitory concentration (IC50) were analyzed by non-linear regression using a four-parameter dosage-response variable slope model with the GraphPad Prism 8.0.2 software (GraphPad Software, USA).

Structure (SMILES): CN(C)CCOC(C)(c1ccccc1)c1ccc(Cl)cc1 (stereo not drawn) [Chlorphenoxamine]
- Examples of published in vitro antiviral activity [1]: MERS, SARS

Structure (SMILES): CCN(CC)CCCC(C)Nc1ccnc2cc(Cl)ccc12 (stereo not drawn) [Chloroquine]
- PLD, known (phospholipidosis): PLD compound
- Examples of published in vitro antiviral activity [1]: MERS, SARS,; also recorded: Filovirus

Structure (SMILES): CN[C@H]1CC[C@@H](c2ccc(Cl)c(Cl)c2)c2ccccc21 [Sertraline]
- PLD, known (phospholipidosis): PLD compound
- Examples of published in vitro antiviral activity [1]: Ebola virus; also recorded: Zika Virus; also recorded: HIV in vivo

Structure (SMILES): CCOC(=O)N1CCC(=C2c3ccc(Cl)cc3CCc3cccnc32)CC1 [Loratadine]
- Cytotoxicity [2]: No cytotoxicity was observed
- block of spike protein-ACE2 interaction [3]: efficient to block spike protein-ACE2 interaction

Structure (SMILES): Clc1ccc2c(c1)CCc1cccnc1C2=C1CCNCC1 [Desloratadine]
- Cytotoxicity (Vero-E6 cells): not found to be cytotoxic
- Cytotoxicity [2]: No cytotoxicity was observed

Structure (SMILES): CN(C)CCCN1c2ccccc2CCc2ccc(Cl)cc21 [Clomipramine]
- Examples of published in vitro antiviral activity [1]: MERS, SARS

Structure (SMILES): Clc1ccc(C(OCCN2CCCCC2)c2ccccc2)cc1 (stereo not drawn) [Cloperastine]
- Examples of published in vitro antiviral activity [1]: SARS-CoV-2

Structure (SMILES): CC(CN1c2ccccc2Sc2ccccc21)N(C)C (stereo not drawn) [Promethazine]
- Examples of published in vitro antiviral activity [1]: Ebola (Sci Transl Med
- Cytotoxicity (Vero-E6 cells): not found to be cytotoxic

Structure (SMILES): CCN(CCO)CCCC(C)Nc1ccnc2cc(Cl)ccc12 (stereo not drawn) [Hydroxyl-chloroquine]
- Examples of published in vitro antiviral activity [1]: SARS-Cov-2

Structure (SMILES): CN1CCCC(n2nc(Cc3ccc(Cl)cc3)c3ccccc3c2=O)CC1 (stereo not drawn) [Azelastine]
- Cytotoxicity (Vero-E6 cells): not found to be cytotoxic

Structure (SMILES): CCN(CC)CCOc1ccc(C(=C(Cl)c2ccccc2)c2ccccc2)cc1 [Clomifene]
- Examples of published in vitro antiviral activity [1]: Ebola, HCV

Structure (SMILES): O=C(CCCN1CCC(O)(c2ccc(Cl)cc2)CC1)c1ccc(F)cc1 [Haloperidol]
- Examples of published in vitro antiviral activity [1]: SARS-CoV-2

Structure (SMILES): COc1ccc2[nH]cc(CCNC(C)=O)c2c1 [Melatonin]
- Examples of published in vitro antiviral activity [1]: Possible roles

Structure (SMILES): O=C(O)COCCN1CCN(C(c2ccccc2)c2ccc(Cl)cc2)CC1 (stereo not drawn) [Cetirizine]
- Examples of published in vitro antiviral activity [1]: HRV (Antiviral

Structure (SMILES): CN(C)CCCN1c2ccccc2Sc2ccc(Cl)cc21 [Chlorpromazine]
- PLD, known (phospholipidosis): PLD agent
- Examples of published in vitro antiviral activity [1]: MERS, SARS
